Legend:
[1] = target: OGG1 (Homo sapiens (Human), UniProt O15527); test: OGG1 inhibitor assay with fluorogenic OGR1 probe (base excision, initial rates); format: biochemical
Method: Methods: Synthesized compounds and hOGG1 (100 nM) were incubated in NEBuffer 4 (1×) with BSA (1×) at 37° C. (15 min) in 100 μL reaction volumes in a black 96-well plate. (See, e.g., Edwards, S. K., et al., ChemBioChem 2015, 16, 1637-1646, the disclosure of which is incorporated herein by reference.) After that, OGR1 (1.2 μM) was added to the reaction mixture. Fluorescence at 460 nm was measured on a Thermo Fluoroskan Ascent FL fluorescence plate reader (λex=355 nm). The slope of initial rate (12 min) was calculated, and % of control was used for inhibition activity. BSA, hOGG1 and NEBuffer 4 were purchased from New England Biolabs and used. UltraPure Distilled Water (Invitrogen) was purchased and used for the assay.

[2] = target: MTH1 (human MutT homolog 1) (Homo sapiens (Human), UniProt P36639); test: MTH1 assay (ARGO probe, Kinase-Glo); format: biochemical; conditions: 20 μM
Method: (30 min). After that, 5 μL of this reaction solution was mixed with 20 μL of Kinase-Glo. Immediately, luminescence was measured on a Thermo Fluoroskan Ascent FL fluorescence plate reader. (See, e.g., Ji, D., et al., J. Am. Chem. Soc. 2016, 138, 9005-9008, the disclosure of which is incorporated herein by reference.) The slope of initial rate (6 min) was calculated, and % of control was used for inhibition activity. MTH1 was purchased from Abcam, PNK buffer was purchased from New England Biolabs, and Kinase-Glo was purchased from Promega.

[3] = target: SMUG1 (Homo sapiens (Human), UniProt Q53HV7); test: SMUG1 assay; format: biochemical; conditions: 20 μM inhibitor
Chain of SMUG1 (Q53HV7 whole entry, species assumed): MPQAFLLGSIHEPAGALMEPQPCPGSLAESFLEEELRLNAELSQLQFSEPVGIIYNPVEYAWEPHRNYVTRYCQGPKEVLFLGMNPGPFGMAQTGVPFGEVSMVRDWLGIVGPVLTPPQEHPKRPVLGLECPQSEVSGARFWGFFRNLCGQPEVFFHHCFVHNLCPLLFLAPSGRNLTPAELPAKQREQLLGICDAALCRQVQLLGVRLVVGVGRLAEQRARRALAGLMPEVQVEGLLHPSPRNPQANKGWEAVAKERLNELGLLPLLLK
Method: (See, e.g., Ono, T., et al., Nucleic Acids Res. 2013, 41, e127-e127, the disclosure of which is incorporated herein by reference.) Enzyme (500 U/mL) was pre-incubated for 5 minutes with 20 μM inhibitor or vehicle or at 37° C. in 50 mM Tris (pH 7.4), 1 mM DTT and 0.5 mM EDTA. Probe 2 (1 μM) was added and the fluorescent signal was plotted over 15 minutes to calculate initial rate. Inhibitor rates were normalized against the vehicle control rate.

[4] = test system: HEK293T cells; test: MTT assay, HEK293T; format: cell-based, human; conditions: 24 h
Method: Methods: HEK293T cells (concentration of 1.6×10^4 cells per well) and HeLa cells (concentration of 1.2×10^4 cells per well) were seeded to 96-well plate in supplemented DMEM culture medium (10% FBS, 100 U Pen./Strep.) and incubated for 30 h (HEK293T cells) and 16 h (HeLa cells) at +37° C. and 5% CO2. […] After the incubation period, 10 μL of the MTT labeling reagent (final concentration 0.5 mg/ml) was added to each well, and incubated at +37° C. and 5%. 100 μl of the solubilization solution was added into each well, and incubated for 20 h at +37° C. and 5%. Absorbance of the samples was measured by using a microplate reader Tecan Infinite M1000 at 550, and 650 nm. […] In the rest of the samples (10 μM, 1 μM, 100 nM, and 10 nM) concentration of DMSO was at the level of 1%. The controls were prepared: Ctrl—cells cultured only in the supplemented DMEM; Ctrl 5% DMSO—cells cultured in 5% DMSO in the supplemented DMEM; Ctrl 1% DMSO—cells cultured in 1% DMSO in the supplemented DMEM.

Chain of OGG1 (O15527 whole entry): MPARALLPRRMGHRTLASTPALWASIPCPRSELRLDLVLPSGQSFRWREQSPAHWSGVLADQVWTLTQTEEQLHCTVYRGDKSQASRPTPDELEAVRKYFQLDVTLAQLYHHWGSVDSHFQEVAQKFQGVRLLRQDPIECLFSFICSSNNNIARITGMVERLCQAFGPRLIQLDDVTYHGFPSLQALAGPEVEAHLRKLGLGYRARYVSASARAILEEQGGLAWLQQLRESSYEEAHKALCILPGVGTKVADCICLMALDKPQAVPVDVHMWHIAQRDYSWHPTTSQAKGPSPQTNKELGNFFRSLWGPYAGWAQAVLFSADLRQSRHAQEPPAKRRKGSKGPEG

NC(=O)c1cccc(-c2ccc(S(=O)(=O)Nc3ccc4c(c3)N(C(=O)C3CC3)CCC4)cc2)c1 [Compound 41]
Enzyme activity, % of control at 200 nM ([1]; 200 nM compound, ratio of initial rate slope (first 12 min) to no-compound control): 39 ± 2.5 % of control | Enzyme activity, % of control at 2 μM ([1]; 2 μM compound, ratio of initial rate slope (first 12 min) to no-compound control): 4.8 % of control | IC50 ([1]; initial rates method): 59 nM | MTH1 enzyme activity in the presence of the inhibitor [2]: > 80% | SMUG1 enzyme activity in the presence of the inhibitor [3]: ~100% | cytotoxicity by MTT assay ([4]; 10 nM to 10 μM): little or no cytotoxicity | toxicity by MTT assay ([4]; 100 μM): 30-50%
